Source: US20230159619A1, “COMPOSITIONS AND METHODS FOR REGULATING IMMUNE SYSTEM ACTIVITY” (Olema Pharmaceuticals, Inc., priority 2017, published 2023)
Substitutions are numbered along the chain they refer to. pIC50: −log10 of the molar value.

What was measured:
[1] = target: T1, endoxifen-responsive dominant negative Zap70 polypeptide including an ER(T2) domain having a G400V mutation (Homo sapiens, UniProt P03372, G400V/L544A/M543A); assay: Endoxifen pIC50 in NFAT-Luciferase reporter assay, G400V construct (Example 8); format: cell-based; conditions: Jurkat E6.1 cells, 10 ng G400V construct, 1:30 Immunocult CD3/CD28/CD2, 19 hours
T1 construct: expressed in transfected cells; host or cells: Jurkat E6.1 cells, transient transfection
T1 sequence (P03372 with tags, fused parts or gaps G400V/M543A/L544A): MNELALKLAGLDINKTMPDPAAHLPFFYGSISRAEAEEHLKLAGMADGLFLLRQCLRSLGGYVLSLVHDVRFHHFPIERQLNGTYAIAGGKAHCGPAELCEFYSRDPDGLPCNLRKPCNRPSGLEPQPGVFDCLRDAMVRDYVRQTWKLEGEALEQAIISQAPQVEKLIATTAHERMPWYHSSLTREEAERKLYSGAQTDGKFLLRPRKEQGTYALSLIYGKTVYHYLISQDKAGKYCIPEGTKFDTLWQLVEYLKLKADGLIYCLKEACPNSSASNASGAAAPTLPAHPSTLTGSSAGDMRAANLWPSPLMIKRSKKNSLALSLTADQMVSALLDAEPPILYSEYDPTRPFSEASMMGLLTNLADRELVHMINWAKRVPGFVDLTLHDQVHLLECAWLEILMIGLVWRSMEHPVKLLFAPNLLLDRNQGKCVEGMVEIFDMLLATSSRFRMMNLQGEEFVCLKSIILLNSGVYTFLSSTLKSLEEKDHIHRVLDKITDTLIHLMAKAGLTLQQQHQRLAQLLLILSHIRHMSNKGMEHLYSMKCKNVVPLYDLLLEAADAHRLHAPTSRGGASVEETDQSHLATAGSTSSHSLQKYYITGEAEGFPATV
Method: (§1) To examine how effective endoxifen is at relieving the inhibition or masking of a dominant negative signaling moiety of a trigger-responsive dominant negative signaling polypeptide by an ER(T2) domain including either a G400V or a G400L mutation, Jurkat E6.1 cells were transiently transfected with 90 ng NFAT-Luciferase reporter construct and 10 ng of a G400V or G400L construct. The transfected cells were stimulated the addition of 1:30 Immunocult CD3/CD28/CD2 tetrameric antibody mixture, and treated with or without endoxifen for 19 hours before assaying for luciferase activity. Results were normalized to maximum TCR stimulation with Immunocult alone, with 0% representing the activity of unstimulated transfected cells. Points represent mean activity from sextuplicate wells with error bars representing SEM. pIC50's were calculated using a variable slope sigmoidal dose-response model using GraphPad Prism.

[2] = target: T2, endoxifen-responsive dominant negative Zap70 polypeptide including an ER(T2) domain having a G400L mutation (Homo sapiens, UniProt P03372, G400L/L544A/M543A); assay: Endoxifen pIC50 in NFAT-Luciferase reporter assay, G400L construct (Example 8); format: cell-based; conditions: Jurkat E6.1 cells, 10 ng G400L construct, 1:30 Immunocult CD3/CD28/CD2, 19 hours
T2 construct: expressed in transfected cells; host or cells: Jurkat E6.1 cells, transient transfection
T2 sequence (P03372 with tags, fused parts or gaps G400L/M543A/L544A): T1 sequence (P03372 with tags, fused parts or gaps G400V/M543A/L544A) with V415L
Method: as §1

IL2-Luciferase reporter [3] = assay: IL2-Luciferase reporter assay with SHP1(210-595) constructs, endoxifen dose response (FIG. 31); format: cell-based, human; conditions: Jurkat E6.1 cells, 1:40 Immunocult CD3/CD28, varying amounts of Z-endoxifen
Text: (§2) Reporter constructs included firefly luciferase (Luc) under the control of an NFAT response element and firefly luciferase (Luc) under the control of an IL2 response element. Data presented in the first panel is from Jurkat E6.1 cells transiently transfected with an NFAT-Luciferase reporter construct, as well as one of (a) empty vector; (b) an expression construct encoding SHP1(210-595); and (c) an expression construct encoding SHP1(210-595)-ER(T12). Data presented in the second panel is from Jurkat E6.1 cells transiently transfected with an IL2-Luciferase reporter construct, as well as one of (a) empty vector; (b) an expression construct encoding SHP1(210-595); and (c) an expression construct encoding SHP1(210-595)-ER(T12). Transient transfections were performed using LTX and PLUS transfection reagent (ThermoFisher Scientific) according to manufacturer's protocols. Transfected cells were treated in the presence of 1:40 dilution of Immunocult CD3/CD28 tetrameric antibody mixture (StemCell Technologies, Canada), which stimulated T-cell activity. Stimulated cells were then further treated with RPMI 1640 media plus 4.8% FBS stripped with charcoal dextran (ThermoFisher Scientific), with varying amounts of Z-endoxifen (Axon-Medchem) as indicated in FIG. 31. Luciferase activity (luminescence) was measured and reported as percent induction of IL2-Luciferase.

NFAT-Luciferase reporter = NFAT-Luciferase reporter assay with SHP1(210-595) constructs, endoxifen dose response (FIG. 31); format: cell-based, human; conditions: Jurkat E6.1 cells, 1:40 Immunocult CD3/CD28, varying amounts of Z-endoxifen
Text: as §2

IL2-Luciferase reporter [4] = assay: IL2-Luciferase reporter assay with SHP1(210-595) constructs (Example 12); format: cell-based, human; conditions: Jurkat E6.1 cells, α-CD3 and α-CD28, with or without endoxifen, compared to empty vector controls
Method: To provide a means for assessing T cell activity, a construct containing a reporter gene, such as firefly luciferase (Luc), under the control of an IL2 response element can be used. In the present Example, Jurkat E6.1 cells were transiently transfected with an IL2-Luciferase reporter construct, as well as one of (a) empty vector; (b) an expression construct encoding SHP1(210-595); and (c) an expression construct encoding SHP1(210-595)-ER(T12). Transient transfections were performed using LTX and PLUS transfection reagent (ThermoFisher Scientific) according to manufacturer's protocols.
Transfected cells were treated in the absence or presence of 1:30 dilution of Immunocult CD3/CD28 tetrameric antibody mixture (StemCell Technologies, Canada), which stimulated T-cell activity. Stimulated cells were then further treated with RPMI 1640 media plus 4.8% FBS stripped with charcoal dextran (ThermoFisher Scientific), without Z-endoxifen or with 50 nM Z-endoxifen (Axon-Medchem). Luciferase activity (luminescence) was measured and reported as percent induction of IL2-Luciferase.

Compound | pIC50 [1] | pIC50 [2] | inhibition of IL2-Luciferase reporter expression (IL2-Luciferase reporter [3]) | inhibition of NFAT-Luciferase reporter expression (NFAT-Luciferase reporter) | luciferase reporter expression (percent induction of IL2-Luciferase) (IL2-Luciferase reporter [4])
CC/C(=C(\c1ccc(O)cc1)c1ccc(OCCNC)cc1)c1ccccc1 [endoxifen] | 8.20 | 8.80 |  |  | 
SHP1(210-595): constitutively active SHP1 phosphatase signaling moiety, SEQ ID NO: 23 |  |  | endoxifen-independent manner | endoxifen-independent manner | substantially reduced expression of luciferase reporter
